According to ChEMBL document CHEMBL1131027, “Enhancement of oral absorption in selective 5-HT1D receptor agonists: fluorinated 3-[3-(piperidin-1-yl)propyl]indoles” (J Med Chem, 1998):

How the values were obtained:
[1] = target: T1, 5-hydroxytryptamine receptor 1D (Homo sapiens, UniProt P28221); experiment: Displacement of [3H]5-HT from human 5-hydroxytryptamine 1D receptor expressed in CHO cells; assay type: cell-based
[2] = target: T1, 5-hydroxytryptamine receptor 1D; experiment: Agonist induced [35S]GTP-gamma-S, binding in CHO cells expressing 5-HT 1d receptor; assay type: functional, cell-based
Rattus norvegicus [3] = experiment: Concentration of compound in rat plasma obtained from cardiac (systemic) blood samples following peroral administration at 3 mg/kg.; assay type: functional, organism-based; set-up: dose 3 mg/kg
Rattus norvegicus [4] = experiment: Concentration of compound in rat plasma obtained from hepatic portal vein(hpv) blood samples following peroral administration at 3 mg/kg.; assay type: functional, organism-based; set-up: dose 3 mg/kg
[5] = target: Serotonin 1 receptors; 5-HT1B & 5-HT1D (Homo sapiens) (UniProt P28222+P28221); experiment: Relative binding to serotonin 5-HT1D and 5-HT1B receptors; assay type: protein assay
[6] = target: T1, 5-hydroxytryptamine receptor 1D; experiment: Percent efficacy relative to 5-HT treatment of CHO cells expressing 5-HT 1d receptor; assay type: functional, cell-based
[7] = The ionization constant (pKa) for the compound measured potentiometrically

T1 sequence (P28221 whole entry): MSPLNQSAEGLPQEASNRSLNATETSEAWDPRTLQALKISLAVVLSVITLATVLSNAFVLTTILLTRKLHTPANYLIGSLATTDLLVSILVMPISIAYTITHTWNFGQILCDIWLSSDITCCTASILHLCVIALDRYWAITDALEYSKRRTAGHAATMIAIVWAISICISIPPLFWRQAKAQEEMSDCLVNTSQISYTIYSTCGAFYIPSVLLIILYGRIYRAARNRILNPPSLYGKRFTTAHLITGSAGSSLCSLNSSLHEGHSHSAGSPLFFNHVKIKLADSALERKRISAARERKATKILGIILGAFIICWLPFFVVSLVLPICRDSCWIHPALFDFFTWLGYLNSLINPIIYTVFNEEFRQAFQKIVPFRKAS

Structure (SMILES)	IC50 [1]	EC50 [2]	Concentration (Rattus norvegicus [3])	Concentration (Rattus norvegicus [4])	Selectivity [5]	Efficacy [6]	pKa [7]
OC[C@H](NC1CCN(CC(F)Cc2c[nH]c3ccc(-n4cnnc4)cc23)CC1)c1ccc(F)cc1 (stereo partly specified)	1.4 nM	1.7 nM	< 1 ng/mL	5 ng/mL	225	95%	
CN(Cc1ccccc1)C1CCN(CC(F)Cc2c[nH]c3ccc(-n4cnnc4)cc23)CC1 (stereo unspecified)	5.4 nM	18 nM	2 ng/mL	57 ng/mL	230	104%	
FC(Cc1c[nH]c2ccc(-n3cnnc3)cc12)CN1CCC(Cc2ccccc2)CC1 (stereo unspecified)	0.95 nM	11 nM	196 ng/mL	781 ng/mL	65	61%	8.7
CN(Cc1ccccc1)[C@H]1CCN(CCCc2c[nH]c3ccc(-n4cnnc4)cc23)C[C@H]1F	2.2 nM				6		
Fc1cccc(CCN2CCN(CC(F)Cc3c[nH]c4ccc(-n5cnnc5)cc34)CC2)c1 (stereo unspecified)	3.7 nM	4.4 nM			324	98%	
c1ccc(CN2CCN(CCCc3c[nH]c4ccc(-n5cnnc5)cc34)CC2)cc1			42 ng/mL	178 ng/mL	40		8.2
Fc1cccc(CCN2CCN(CCCc3c[nH]c4ccc(-n5cnnc5)cc34)CC2)c1					125		
OC[C@H](NC1CCN(CCCc2c[nH]c3ccc(-n4cnnc4)cc23)CC1)c1ccc(F)cc1			< 2 ng/mL	< 2 ng/mL	206	104%	
c1ccc(CC2CCN(CCCc3c[nH]c4ccc(-n5cnnc5)cc34)CC2)cc1	0.35 nM	0.6 nM	< 2 ng/mL	25 ng/mL	57	62%	9.7
CN(Cc1ccccc1)C1CCN(CCCc2c[nH]c3ccc(-n4cnnc4)cc23)CC1			< 1 ng/mL	4 ng/mL	66	94%	
Fc1cccc(CCC2(F)CCN(CCCc3c[nH]c4ccc(-n5cnnc5)cc34)CC2)c1	0.75 nM	5.1 nM			30	71%	
CN(Cc1ccccc1)[C@@H]1CCN(CCCc2c[nH]c3ccc(-n4cnnc4)cc23)C[C@@H]1F	13 nM		2 ng/mL	216 ng/mL	18		8
FC1(Cc2ccccc2)CCN(CCCc2c[nH]c3ccc(-n4cnnc4)cc23)CC1	1 nM	0.5 nM	52 ng/mL	570 ng/mL	16	58%	8.8
